Experimental data from US11351178B2, “Selective HDAC6 inhibitors” (ITALFARMACO S.P.A., priority 2017, dated 2022).
Where two headings read alike, the source gives them in different places.

Assays:
[1] = system: α-tubulin acetylation in 697 cell line; assay: In vitro α-tubulin acetylation in 697 cell line; type: cell-based
Procedure: (§1) The in vitro α-tubulin and H3 histone acetylation determination was evaluated on B 697 […] cell line.
(§2) The test molecules were diluted from 20 mM stock solution in DMSO with RPMI 10% FCS+0.01% DMSO medium at 20× concentration compared to the final concentration, added to the cells (15×10^6 cells in a total volume of 30 ml in RPMI medium 10% FCS+0.01% DMSO) to obtain the final concentrations of 1000, 333, 111 and 37 nM and incubated at 37° C., 5% CO2 for 16 hours.
At the end of the incubation period, 5×10^6 cells were taken from each sample, centrifuged for 5 minutes at 1100 rpm and washed in 0.9% NaCl at 4° C. The resulting pellet was lysed by treating at 4° C. for 30 minutes with 150 μl of Complete Lysis-M (Roche, cat-04719956051) containing protease inhibitors and phosphatase (Complete Easy Pack proteinase inhibitor cocktail tablets cat: 04693116001, Phostop easypack phosphatase inhibitor cocktails, cat: 01906837001—Roche), then centrifuged 10 minutes at 14,000 rpm (20817×g). 0.150 μg of supernatant (total protein extract) were diluted in 100 μl of 1×PBS and immobilized in Maxisorp F96 NUN-IMMUNO Plate (Nunc cat #5442404) at room temperature overnight. Plates were washed twice with Wash Buffer (PBS1X+0.005% tween 20) and saturated for 1 hour at room temperature with 300 μL of 1×PBS containing 10 FCS. After washing with buffer (1×PBS containing 0.005% tween), the plates were incubated for two hours at room temperature in the presence of anti-acetylated-α-tubulin antibody (Monoclonal Anti-acetylated-tubulin clone 6-11B-1, mouse ascites fluid, cat #T6793 Sigma, 100 μl diluted 1:1000 in 1×PBS containing 10% FCS) or with total anti-α-tubulin antibody (Monoclonal Anti alpha-tubulin produced in mouse, cat #T6074 Sigma). After washing, 100 μl per well of TMB substrate kit was added for 10 minutes at room temperature in the dark. The reaction was stopped by adding 50 μl of 2N H2SO4. The plates were read at Multiskan Spectrum spectrophotometer at a wavelength of 450 nm.
The degree of acetylation was calculated by dividing the absorbance obtained for acetylated α-tubulin by the absorbance of total α-tubulin.
(§3) Test results of tubulin and H3 histone acetylation, expressed as fold increase of ratio of acetylated α-tubulin/total α-tubulin and H3Ac/H3Tot, respectively, of each sample relative to the control sample (untreated) are summarized in Tables 6 and 6′.

[2] = system: H3 histone acetylation in 697 cell line; assay: In vitro H3 histone acetylation in 697 cell line; type: cell-based
Procedure: as §1, §2
The remaining cells (10×10^6) were treated by acid extraction of histones (Kazuhiro et al., PNAS (2002), 99 (13) 8921-8926). Cells were centrifuged 5 min at 1100 rpm at 4° C. and washed once in 0.9% NaCl. The resulting pellet was lysed with […] (10 mM Tris.HCl, pH 6.5/50 mM sodium bisulphite, 1% Triton X-100/10 mM MgCl2/8.6% saccharose containing the protease inhibitor mixture (Roche)) for 20 min at 4° C. The resulting nucleus pellet was repeatedly washed in buffer until supernatant clarification (centrifuged at 7,500×g, 5 minutes after each wash) and finally washed in nucleus buffer (10 mM Tris.HCl/13 mm EDTA, pH 7, 4) and resuspended in 250 μl of 0.2 M HCl/H2SO4. Histone proteins were extracted in an acidic environment by incubating overnight at 4° C. under gentle shaking. After centrifugation at 14,000 rpm at 4° C. for 10 minutes, 1250 μl of cold acetone was added to the supernatant and incubated overnight at −20° C., resulting in the precipitation of histone proteins. The pellet obtained after centrifugation for 10 minutes at 14000 rpm and 4° C. was washed with cold acetone, evaporated to dryness and resuspended in 50 μl distilled water. The protein content determination of both total and histone extracts was carried out by a colorimetric assay using a BCA Protein Assay Kit (Pierce cat: 23227).
H3 histone acetylation and total H3 amount were quantified by commercial ELISA assays PathScan acetylated histone H3 Sandwich Elisa kit, cat #7232C and PathScan total histone H3 Sandwich Elisa Kit, cat #7253C Cell Signaling) according to supplier reported method and by detecting absorbance at 450 nm wavelength using Multiskan Spectrum. ELISA tests were performed by analysing 0.250 μg and 0.500 μg of histone extract of each sample. The degree of acetylation was calculated by dividing H3 histone absorbance by histone total absorbance.
as §3

[3] = type: in vivo; conditions: mouse, Day 12, 100 mg/Kg ip
Procedure: Following chronic intraperitoneal administration in C57BL/6 mice, compounds MTD was estimated by clinical (body weight and behaviour) and blood (white blood cells and platelets) parameters evaluation. The compounds were administered after dissolution in a H2O/PEG400 mixture in ratio 1:1 w/w containing 5% DMSO (for compound 17, 20% DMSO was used).
All animals were weighed the day before the treatment (day 0) and the average body weight was determined.
Animals (8 animals per group) were treated once a day starting from Day 1 during 5 consecutive days per week with: • a) the compounds at doses of 10, 30, 50 mg/kg ip, • b) Givinostat at 100 mg/kg (internal control) and • c) the vehicle solutions used for solubilizing the substances.
The volume of the solutions administered was 10 mL/Kg. The treatment was repeated for 2 weeks, for a total of 10 treatments/group.
On a daily basis any clinical sign (skin appearance, mobility and animal reactivity, respiration, etc.) indicating a possible toxicity of the compounds has been reported. The animal weight was evaluated on days 2, 4, 9 and 11.
On Day 1, 3, 5, 8, 10 and 12, blood sample (about 50 μL) were taken from the tail of the animal to evaluate the effect of the substances on blood parameters. Withdrawals were performed on 4 animals per group on alternate days.
Samples were harvested in tubes containing EDTA, appropriately diluted in physiological solution and analysed with a cell counter.
At the end of the study (day 12) the animals were sacrificed 60 minutes after the last treatment. Gross necropsy evaluation was performed to detect any internal organ abnormalities. Table 8 summarizes the data obtained in MTD determination experiments for some of the compounds according to the invention. Givinostat is a HDAC pan inhibitor and was used as a reference. The tested molecules are well tolerated.

[4] = system: human PBMCs; assay: Mixed Lymphocytes Reaction (MLR) with human PBMCs (IFN-γ, TNF-α, IL-6); type: cell-based; conditions: PBMC, 144 h, two-way MLR, 6 days, 0.05 μM, negative = induction
Procedure: In order to study HDAC6 inhibitors ability to inhibit the activation of allogenic T CD4+ cells, a Mixed Lymphocytes Reaction (MLR or mixed lymphocyte culture, CLM) assay was performed. This is a reaction involving blast transformation of in vitro cultured lymphocytes in the presence of allogeneic lymphocytes. There is the so-called “two-way” reaction wherein the two lymphocyte populations stimulate each other to proliferate, and the so-called “one way” reaction, wherein the proliferation of one of the two populations is inhibited by mitomycin C or irradiation, these cells provide proliferation stimulus (stimulator) to the so-called “responder” cells.
Human peripheral blood mononuclear cells (PBMCs) used in MLR were obtained by Ficoll gradient separation from Buffy Coat of healthy donors.
We used a two-way MLR. The cells from the two donors were plated at 1:1 ratio (allogenic stimulation) to the final concentration of 2×10^5 per well in U-bottom 96 well plates in RPMI 1640 medium with 10% FBS and antibiotics. As a control we individually plated the cells from each donor (singenic stimulus). The experiment for each inhibitor was set in deduplicate for allogeneic stimuli and in quintuplicate for singenic stimuli. The cells were cultured for 6 days in an incubator at 37° C.
After 6 days the effect of the test compounds was evaluated by measuring the production of pro-inflammatory cytokines recognized to be characteristics of this assay.
For this purpose, the culture supernatant was harvested and used for IFN-γ, TNF-α and IL-6 inflammatory cytokine assay.
The JAK inhibitor ruxolitinib was used as the active reference compound in the test.
Values in the table indicate the inhibition percentages. Negative values indicate an induction.

Structure (SMILES) | tubulin acetylation (in words) [1] | fold induction at 0.037 µM ([1]; Conc 37 nM, 16 hours, read-out: Tubulin acetylation (ratio of acetylated tubulin and total tubulin towards control)) | fold induction at 0.111 µM ([1]; Conc 111 nM, 16 hours, read-out: Tubulin acetylation (ratio of acetylated tubulin and total tubulin towards control)) | fold induction at 0.333 µM ([1]; Conc 333 nM, 16 hours, read-out: Tubulin acetylation (ratio of acetylated tubulin and total tubulin towards control)) | fold induction at 1 µM ([1]; Conc 1000 nM, 16 hours, read-out: Tubulin acetylation (ratio of acetylated tubulin and total tubulin towards control)) | H3 histone acetylation (in words) [2] | fold induction at 0.111 µM ([2]; 16 h, conc 111 nM, read-out: Acetylation of H3 histone (fold increase of acetylated H3/total H3 towards control)) | fold induction at 0.333 µM ([2]; 16 h, conc 333 nM, read-out: Acetylation of H3 histone (fold increase of acetylated H3/total H3 towards control)) | fold induction at 1 µM ([2]; 16 h, conc 1000 nM, read-out: Acetylation of H3 histone (fold increase of acetylated H3/total H3 towards control)) | Body weight % vs control [3] | Platelet % vs control [3] | White blood cells % vs control [3] | inhibition at 0.05 µM ([4]; read-out: MLR IFN-γ inhibition percentage) | inhibition at 0.05 µM ([4]; read-out: MLR IL-6 inhibition percentage) | inhibition at 0.05 µM ([4]; read-out: MLR TNF-α inhibition percentage)
CCN(CC)Cc1ccc2cc(COC(=O)Nc3ccc(C(=O)NO)cc3)ccc2c1 [Givinostat, reference compound] | good acetylation of both tubulin and H3 histone | 1 | 4 | 12 | 18 | good acetylation of both tubulin and H3 histone | 8 | 17 | 23 | 0.9% | −7% | −72% |  |  | 
N#CC[C@H](C1CCCC1)n1cc(-c2ncnc3[nH]ccc23)cn1 [ruxolitinib, reference compound] |  |  |  |  |  |  |  |  |  |  |  |  | 87.9% | 73.3% | 61.2%
